# Measurements from patent US20260207614A1, “IRAK4 DEGRADERS AND USES THEREOF” (Kymera Therapeutics, Inc., priority 2022, published 2026).
# “Also recorded” adds a separate entry of the source.
# Tests used:
# [1] = system: LPS (TLR4)-stimulated cytokine induction in whole blood; test: Phase 1 SAD ex vivo LPS-stimulated cytokine induction in whole blood; parameters: species or system human; settings: 24-48 hours, Cohort 7
# [2] = Phase 1 Part C Compound A skin concentration; format: in vivo, human; settings: FIG. 20, Day 28
# IRAK4 [3] = target: T1, IRAK4 (Rattus norvegicus, UniProt A0A8I6G1H3); test: In vitro IRAK4 degradation, rat splenocytes; format: cell-based; settings: read-out: DC50 (IRAK4 degradation)
# T1 construct: endogenous in cells; host or cells: rat splenocytes
# T1 sequence (A0A8I6G1H3 1-461): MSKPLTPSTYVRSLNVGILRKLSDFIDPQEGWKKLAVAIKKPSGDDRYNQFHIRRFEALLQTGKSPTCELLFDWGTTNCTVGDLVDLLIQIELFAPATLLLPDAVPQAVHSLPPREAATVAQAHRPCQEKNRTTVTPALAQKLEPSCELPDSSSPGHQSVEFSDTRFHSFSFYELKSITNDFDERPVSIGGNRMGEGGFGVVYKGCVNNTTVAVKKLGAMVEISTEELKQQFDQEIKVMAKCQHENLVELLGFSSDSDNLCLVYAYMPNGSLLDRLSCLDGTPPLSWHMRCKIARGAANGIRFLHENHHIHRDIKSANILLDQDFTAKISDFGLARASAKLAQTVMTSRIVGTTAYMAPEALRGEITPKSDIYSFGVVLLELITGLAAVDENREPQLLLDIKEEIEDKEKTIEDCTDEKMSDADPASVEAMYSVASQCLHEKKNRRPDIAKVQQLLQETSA
# [4] = system: disease-relevant cytokines ex vivo; test: Phase 1 Part C ex vivo cytokine stimulation assays; format: in vivo, human
# Description: Plots show median of the maximum change from baseline between Days 7-14 in MAD3 and Days 14-28 in Part C.
# IL-36, IFN-g, IL-8, IL-5, GZMB and COX2 in HS and IL-5, IL-31, NLRP3, CXCL1 and IL-2RB in AD (FIG. 25A-B).
# [5] = system: MSU-crystal induced (TLR 2/4-dependent) inflammation; test: Mouse air pouch model of MSU-crystal induced inflammation; format: in vivo
# Description: (§1) Overall, efficacy was associated with achieving at least 80% or more IRAK4 knockdown in associated tissues in the model systems.
# [6] = Plasma protein binding and red blood cell partitioning; format: in vitro ADME, nonclinical species and humans
# Permeability = format: in vitro ADME
# Description: (§2) In in vivo pharmacokinetic (PK) studies conducted in rats, dogs, and monkeys.
# Compound A can be classified tentatively as a BCS II compound.
# [7] = Phase 1 Part C plasma PK in HS/AD patients; format: in vivo; settings: human
# Description: Part C: Part C is an open-label, multiple dose study in a single cohort of up to 20 patients with AD or HS (at least 10 patients with AD) and will commence after the completion of Part B. Part C will be conducted on both an inpatient and outpatient basis and patients will continue to be followed for safety through Day 28. The dose regimen and the requirement for patient confinement to the clinical units will be selected by the SRC from review of the safety. PK, and PD data after completion of Part B.
# [8] = system: TLR agonist (lipopolysaccharide and R848) and IL-1β-induced proinflammatory cytokine production; test: In vitro cytokine release assays in PBMCs; format: cell-based; settings: LPS
# [9] = system: proinflammatory gene transcripts; test: Phase 1 Part C proinflammatory gene transcripts in skin lesions (RNAseq); format: in vivo, human; settings: Day 28 compared to baseline
# [10] = system: imiquimod psoriasis model (TLR 7/8-dependent); test: Imiquimod psoriasis model; format: in vivo, murine
# Description: as §1
# [11] = Excretion study in bile duct-cannulated (BDC) rats; format: in vivo
# IRAK4 [12] = target: T2, IRAK4 (Canis lupus familiaris, UniProt A0A8I3S726); test: In vitro IRAK4 degradation, dog PBMCs; format: cell-based; settings: read-out: DC50 (IRAK4 degradation)
# T2 construct: endogenous in cells; host or cells: dog PBMCs
# T2 sequence (A0A8I3S726 1-460): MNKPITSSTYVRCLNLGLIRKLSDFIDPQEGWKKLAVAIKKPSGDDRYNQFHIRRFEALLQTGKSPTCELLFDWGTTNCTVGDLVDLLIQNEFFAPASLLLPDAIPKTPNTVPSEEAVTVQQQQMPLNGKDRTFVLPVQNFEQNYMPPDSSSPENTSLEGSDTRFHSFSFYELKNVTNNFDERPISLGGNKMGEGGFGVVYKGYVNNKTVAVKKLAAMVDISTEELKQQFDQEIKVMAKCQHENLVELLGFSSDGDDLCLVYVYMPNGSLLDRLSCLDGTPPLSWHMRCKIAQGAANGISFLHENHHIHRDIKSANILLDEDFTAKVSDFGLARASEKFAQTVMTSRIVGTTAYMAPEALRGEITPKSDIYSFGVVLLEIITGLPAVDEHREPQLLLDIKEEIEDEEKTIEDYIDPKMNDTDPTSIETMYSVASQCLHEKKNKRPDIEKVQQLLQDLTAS
# P-glycoprotein (P-gp) = P-glycoprotein (P-gp) (Homo sapiens, UniProt P08183); test: P-gp substrate assessment in vitro; format: in vitro ADME
# P-glycoprotein (P-gp), sequence (P08183 whole entry): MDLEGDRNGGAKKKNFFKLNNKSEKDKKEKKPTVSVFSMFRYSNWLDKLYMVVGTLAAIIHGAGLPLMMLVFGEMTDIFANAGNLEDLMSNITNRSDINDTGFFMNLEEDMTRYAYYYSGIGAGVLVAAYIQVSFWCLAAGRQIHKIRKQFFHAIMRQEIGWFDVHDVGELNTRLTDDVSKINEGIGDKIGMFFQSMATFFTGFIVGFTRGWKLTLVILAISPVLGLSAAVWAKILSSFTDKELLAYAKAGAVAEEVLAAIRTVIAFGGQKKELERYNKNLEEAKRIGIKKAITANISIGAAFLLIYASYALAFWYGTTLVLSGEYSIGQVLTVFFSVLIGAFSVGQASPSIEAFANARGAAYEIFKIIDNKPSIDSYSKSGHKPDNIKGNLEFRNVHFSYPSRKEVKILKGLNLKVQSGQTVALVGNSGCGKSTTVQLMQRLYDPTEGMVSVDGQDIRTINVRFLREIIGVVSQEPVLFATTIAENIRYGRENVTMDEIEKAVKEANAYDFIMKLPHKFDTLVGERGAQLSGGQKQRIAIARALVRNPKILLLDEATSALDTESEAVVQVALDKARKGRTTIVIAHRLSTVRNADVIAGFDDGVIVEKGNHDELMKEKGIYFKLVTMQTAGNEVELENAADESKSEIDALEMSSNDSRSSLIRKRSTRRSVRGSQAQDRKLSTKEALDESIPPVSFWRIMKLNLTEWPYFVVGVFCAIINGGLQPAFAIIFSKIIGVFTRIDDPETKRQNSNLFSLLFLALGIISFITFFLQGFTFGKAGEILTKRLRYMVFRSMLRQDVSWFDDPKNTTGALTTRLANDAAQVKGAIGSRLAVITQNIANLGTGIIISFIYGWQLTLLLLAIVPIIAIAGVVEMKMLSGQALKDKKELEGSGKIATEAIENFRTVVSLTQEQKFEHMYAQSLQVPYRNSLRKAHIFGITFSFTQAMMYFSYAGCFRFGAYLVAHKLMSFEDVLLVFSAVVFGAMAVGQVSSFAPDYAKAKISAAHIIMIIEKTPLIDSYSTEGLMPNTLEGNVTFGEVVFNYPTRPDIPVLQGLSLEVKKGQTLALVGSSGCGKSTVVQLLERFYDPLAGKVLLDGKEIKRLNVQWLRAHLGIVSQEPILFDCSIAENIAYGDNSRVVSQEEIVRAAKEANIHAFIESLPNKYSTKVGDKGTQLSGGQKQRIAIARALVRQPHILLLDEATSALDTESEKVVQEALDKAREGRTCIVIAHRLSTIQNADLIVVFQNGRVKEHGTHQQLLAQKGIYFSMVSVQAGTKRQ
# Description: as §2
# Metabolites generated in liver microsomes from humans were also detected in those from rat, dog, and monkey. In the in vitro drug-drug interaction studies.
# [13] = 30 to 100 mg/kg twice daily, 3 days
structure (smiles),measurement,setting,value
"Cn1c(=O)n([C@@H]2CCC(=O)NC2=O)c2cccc(C#CCOC3CCN(C[C@H]4CC[C@H](n5cc(NC(=O)c6cnn7ccc(N8C[C@H]9C[C@@H]8CO9)nc67)c(C(F)F)n5)CC4)CC3)c21 [Compound A, 5-((1R,4R)-2-oxa-5-azabicyclo[2.2.1]heptan-5-yl)-N-(3-(difluoromethyl)-1-((1r,4R)-4-((4-((3-(1-(2,6-dioxopiperidin-3-yl)-3-methyl-2-oxo-2,3-dihydro-1H-benzo[d]imidazol-4-yl)prop-2-yn-1-yl)oxy)piperidin-1-yl)methyl)cyclohexyl)-1H-pyrazol-4-yl)pyrazolo[1,5-a]pyrimidine-3-carboxamide]",Mean Maximum Percent Change from Baseline in ex vivo IFNγ induction,[1],−42%^
same,Mean Maximum Percent Change from Baseline in ex vivo IL1β induction,[1],−68%^1
same,Mean Maximum Percent Change from Baseline in ex vivo IL6 induction,[1],−62%^1
same,Mean Maximum Percent Change from Baseline in ex vivo IL8 induction,[1],−81%^1
same,Mean Maximum Percent Change from Baseline in ex vivo IL10 induction,[1],−83%^1
same,Mean Maximum Percent Change from Baseline in ex vivo IL12 induction,[1],−35%^2
same,Mean Maximum Percent Change from Baseline in ex vivo IL17 induction,[1],−43%^2
same,Mean Maximum Percent Change from Baseline in ex vivo TNFα induction,[1],−42%^2
same,skin concentration of Compound A in HS or AD patient compared to healthy volunteer,[2],about 2 fold
same,DC50,IRAK4 [3],< 10 nM
same,"inhibition of disease-relevant cytokines ex vivo, maximum",[4]; AD patients,up to 98%
same,"cytokine inhibition, IFN-γ","[4]; AD patients, FIG. 23",up to 95%
same,"cytokine inhibition, IL-1β","[4]; AD patients, FIG. 23",up to 81%
same,"cytokine inhibition, IL-6","[4]; AD patients, FIG. 23",up to 74%
same,"cytokine inhibition, IL-8","[4]; AD patients, FIG. 23",up to 85%
same,"cytokine inhibition, IL-10","[4]; AD patients, FIG. 23",up to 98%
same,"cytokine inhibition, IL-12","[4]; AD patients, FIG. 23",up to 76%
same,"cytokine inhibition, IL-17","[4]; AD patients, FIG. 23",up to 83%
same,"cytokine inhibition, IL-23","[4]; AD patients, FIG. 23",up to 95%
same,"cytokine inhibition, TNF-α","[4]; AD patients, FIG. 23",up to 74%
same,"inhibition of disease-relevant cytokines ex vivo, maximum",[4]; HS patients,up to 84%
same,"cytokine inhibition, IFN-γ","[4]; HS patients, FIG. 23",up to 76%
same,"cytokine inhibition, IL-1β","[4]; HS patients, FIG. 23",up to 57%
same,"cytokine inhibition, IL-6","[4]; HS patients, FIG. 23",up to 50%
same,"cytokine inhibition, IL-8","[4]; HS patients, FIG. 23",up to 59%
same,"cytokine inhibition, IL-10","[4]; HS patients, FIG. 23",up to 52%
same,"cytokine inhibition, IL-12","[4]; HS patients, FIG. 23",up to 84%
same,"cytokine inhibition, IL-17","[4]; HS patients, FIG. 23",up to 46%
same,"cytokine inhibition, TNF-α","[4]; HS patients, FIG. 23",up to 54%
same,"inhibition of 9 disease-relevant cytokines ex vivo, maximum","[4]; HS/AD patients, median of maximum change from baseline Days 14-28",up to 98%
same,IRAK4 levels in the spleen,[5]; [13],significantly reduced
same,"inflammatory exudate, including neutrophils and IL-1β",[5]; [13],significantly reduced
same,IRAK4 knockdown in associated tissues associated with efficacy,[5]; murine inflammation model systems overall,at least 80%
same,partitioning into red blood cells,[6],did not significantly partition into red blood cells
same,plasma protein binding,[6]; across nonclinical species and humans,highly bound
same,permeability,Permeability,medium; also recorded: moderate
same,exposure in fasted state as share of exposure in fed state,[7]; in vivo,about 133%
same,exposure in fed state as share of exposure in fasted state,[7]; in vivo,about 75%
same,half-life,"[7]; plasma, oral, Part C, 75 mg QD fed, HS/AD patients",44 h
same,"IC50 values, inhibition of proinflammatory cytokine production (IL-6, TNF-α, GM-CSF, IL-8)",[8],low nM range
same,"downregulation of proinflammatory gene transcripts in skin lesions (IL-5, IL-31, NLRP3, CXCL1, IL-2RB)",[9]; AD patients,> 25%
same,"downregulation of proinflammatory gene transcripts in skin lesions (IL-1b, IL-17, IL-36, IFN-g, IL-8, IL-5, GZMB, COX2)",[9]; HS patients,> 25%
same,degradation of IRAK4 in the spleen and skin,"[10]; mouse, in vivo",dose-dependent degradation
same,skin thickness,"[10]; mouse, in vivo",reduction in skin thickness
same,IL-1β in the skin,[10]; p<0.0001,significant reduction
same,IL-6 in the skin,"[10]; p<0.05, 300 mg/kg only",significant reduction
same,biliary and intestinal excretion as parent drug,[11],minor to moderate
same,renal clearance,[11],negligible
same,DC50,IRAK4 [12],< 10 nM
same,substrate of P-glycoprotein (P-gp),P-glycoprotein (P-gp),substrate
